Holding throughout (format): biochemical
One assay addresses human Factor Xa (Homo sapiens (Human), UniProt P00742). The assay can be described thus: Human factor Xa chromogenic assay. The settings on record: substrate S-2222, read-out: hfXa Ki.
The target of a further assay is rat Factor Xa (Rattus norvegicus (Rat), UniProt Q63207). The assay can be described thus: Rat factor Xa chromogenic assay. As to conditions: substrate S-2222, read-out: rfXa Ki.
The target of a further assay is human thrombin (Homo sapiens (Human), UniProt P00734). Nature of the assay: Human thrombin assay. The settings on record: substrate S-2238.
The target in another assay is human trypsin (Homo sapiens, UniProt P07477). The assay can be described thus: Human trypsin assay. As to conditions: substrate S-2222.
The target of the next assay is prothrombinase (Homo sapiens (Human), UniProt P00742). The assay can be described thus: Prothrombinase assay (thrombin generation). The settings on record: human factor Xa with human platelets, prothrombin, substrate S-2238.

A value given as a limit tells only on which side of the number the result lay.

rat Factor Xa, sequence (Q63207 232-482): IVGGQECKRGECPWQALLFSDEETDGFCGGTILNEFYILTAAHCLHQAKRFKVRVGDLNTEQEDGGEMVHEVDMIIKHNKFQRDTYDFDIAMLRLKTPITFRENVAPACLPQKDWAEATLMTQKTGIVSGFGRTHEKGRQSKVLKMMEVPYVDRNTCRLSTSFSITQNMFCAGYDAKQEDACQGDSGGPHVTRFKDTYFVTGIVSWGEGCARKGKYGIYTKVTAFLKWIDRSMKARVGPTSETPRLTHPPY
rat Factor Xa, sequence (Q63207 41-180): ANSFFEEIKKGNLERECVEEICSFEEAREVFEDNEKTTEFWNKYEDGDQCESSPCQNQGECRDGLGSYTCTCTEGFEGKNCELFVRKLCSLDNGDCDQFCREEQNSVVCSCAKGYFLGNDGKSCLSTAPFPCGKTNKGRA
prothrombinase, sequence (P00742 235-488): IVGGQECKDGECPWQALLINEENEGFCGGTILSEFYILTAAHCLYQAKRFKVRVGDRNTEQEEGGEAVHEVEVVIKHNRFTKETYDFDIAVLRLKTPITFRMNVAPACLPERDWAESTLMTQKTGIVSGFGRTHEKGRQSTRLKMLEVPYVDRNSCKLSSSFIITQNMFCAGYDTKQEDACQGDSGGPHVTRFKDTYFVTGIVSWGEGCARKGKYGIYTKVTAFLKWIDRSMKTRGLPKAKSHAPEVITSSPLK
prothrombinase, sequence (P00742 41-179): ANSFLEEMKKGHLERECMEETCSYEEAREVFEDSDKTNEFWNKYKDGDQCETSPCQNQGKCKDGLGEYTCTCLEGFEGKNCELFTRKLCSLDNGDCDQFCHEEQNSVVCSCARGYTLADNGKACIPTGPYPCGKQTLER
prothrombinase, sequence (P12259 29-737 partner): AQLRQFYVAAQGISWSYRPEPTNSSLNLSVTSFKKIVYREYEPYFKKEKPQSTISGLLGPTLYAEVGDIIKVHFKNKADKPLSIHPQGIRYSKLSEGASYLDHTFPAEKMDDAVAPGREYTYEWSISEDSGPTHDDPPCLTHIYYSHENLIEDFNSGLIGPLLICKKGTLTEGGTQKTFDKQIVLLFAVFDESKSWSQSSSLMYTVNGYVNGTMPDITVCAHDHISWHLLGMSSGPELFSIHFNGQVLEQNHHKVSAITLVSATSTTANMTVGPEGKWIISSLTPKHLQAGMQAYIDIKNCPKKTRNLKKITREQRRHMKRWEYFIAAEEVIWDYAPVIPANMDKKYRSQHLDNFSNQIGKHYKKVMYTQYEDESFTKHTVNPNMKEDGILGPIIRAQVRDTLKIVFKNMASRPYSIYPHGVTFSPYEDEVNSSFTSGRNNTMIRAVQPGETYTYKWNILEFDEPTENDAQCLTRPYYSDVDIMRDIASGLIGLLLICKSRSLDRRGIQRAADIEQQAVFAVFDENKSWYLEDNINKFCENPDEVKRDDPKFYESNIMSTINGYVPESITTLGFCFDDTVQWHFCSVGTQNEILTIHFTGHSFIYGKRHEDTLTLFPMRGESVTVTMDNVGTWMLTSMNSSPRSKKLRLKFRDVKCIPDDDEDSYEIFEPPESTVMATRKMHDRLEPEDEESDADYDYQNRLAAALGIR
prothrombinase, sequence (P12259 1574-2224 partner): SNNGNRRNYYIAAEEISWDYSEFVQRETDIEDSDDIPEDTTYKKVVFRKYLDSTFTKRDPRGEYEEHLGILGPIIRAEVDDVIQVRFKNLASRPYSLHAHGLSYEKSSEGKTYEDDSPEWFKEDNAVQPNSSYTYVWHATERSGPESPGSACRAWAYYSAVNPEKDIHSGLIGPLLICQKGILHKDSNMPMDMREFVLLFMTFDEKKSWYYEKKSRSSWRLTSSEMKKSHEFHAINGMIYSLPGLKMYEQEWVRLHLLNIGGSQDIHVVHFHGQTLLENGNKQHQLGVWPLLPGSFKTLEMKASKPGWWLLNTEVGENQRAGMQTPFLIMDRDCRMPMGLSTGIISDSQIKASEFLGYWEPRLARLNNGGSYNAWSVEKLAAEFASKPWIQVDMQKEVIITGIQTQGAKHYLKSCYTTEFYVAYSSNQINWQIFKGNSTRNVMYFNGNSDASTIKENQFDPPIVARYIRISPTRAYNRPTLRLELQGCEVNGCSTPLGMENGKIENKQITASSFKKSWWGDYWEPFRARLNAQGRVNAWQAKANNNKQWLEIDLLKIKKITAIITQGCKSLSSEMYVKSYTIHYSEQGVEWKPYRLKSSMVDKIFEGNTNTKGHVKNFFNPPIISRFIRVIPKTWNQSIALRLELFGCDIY
human Factor Xa, sequence (P00742 235-488): as the sequence (P00742 235-488) above
human Factor Xa, sequence (P00742 41-179): as the sequence (P00742 41-179) above

In general, Ki refers to a dissociation constant, usually derived from enzyme kinetics or from competition with a known ligand. Regarding `N#Cc1cccc(-n2nc(C(F)(F)F)c3c2C(=O)N(C2CCN(N4CCOCC4=O)CC2)CC3)c1` [Example 27, 3-(7-Oxo-6-(1-(3-oxomorpholino)piperidin-4-yl)-3-(trifluoromethyl)-4,5,6,7-tetrahydro-1H-pyrazolo[3,4-c]pyridin-1-yl)benzonitrile], at human Factor Xa, the Ki fell in the range of 10 to 50 nM.

For `Nc1noc2ccc(-n3nc(C(F)(F)F)c4c3C(=O)N(C3CCN(N5CCOCC5=O)CC3)CC4)cc12` [Example 26, 4-(4-(1-(3-Aminobenzo[d]isoxazol-5-yl)-7-oxo-3-(trifluoromethyl)-4,5-dihydro-1H-pyrazolo[3,4-c]pyridin-6(7H)-yl)piperidin-1-yl)morpholin-3-one], the Ki on human Factor Xa was not above 10 nM; at rat Factor Xa, not above 10 nM; at human thrombin it was not below 1000 nM; at human trypsin, not below 1000 nM; at prothrombinase, not above 10 nM.

Take `COc1ccc(-n2nc(C(N)=O)c3c2C(=O)N(C2CCN(N4CCOCC4=O)CC2)CC3)cc1` [Example 7, 1-(4-Methoxyphenyl)-7-oxo-6-(1-(3-oxomorpholino)piperidin-4-yl)-4,5,6,7-tetrahydro-1H-pyrazolo[3,4-c]pyridine-3-carboxamide]: the Ki is not above 10 nM on human Factor Xa; 10 to 50 nM on rat Factor Xa; not below 1000 nM on human thrombin; not below 1000 nM at human trypsin; not above 10 nM on prothrombinase.

With `COC1CCC(n2nc(C(N)=O)cc2C(=O)NC2CCN(N3CCOCC3=O)CC2)CC1` (centres unmarked) [Example 22, 1-(4-Methoxycyclohexyl)-N^5-(1-(3-oxomorpholino)piperidin-4-yl)-1H-pyrazole-3,5-dicarboxamide], the Ki at human Factor Xa fell in the range of 50 to 1000 nM.

Consider `CCN(C(=O)c1cc(C(N)=O)nn1-c1ccc(OC)cc1)C1CCN(N2CCOCC2=O)CC1` [Example 17, N^5-Ethyl-1-(4-methoxyphenyl)-N^5-(1-(3-oxomorpholino)piperidin-4-yl)-1H-pyrazole-3,5-dicarboxamide], for which the Ki on human Factor Xa fell in the range of 50 to 1000 nM.

As for `COc1ccc(-n2nc(C(N)=O)cc2C(=O)NC2CCN(N3CCOCC3=O)CC2)cc1` [Example 15, 1-(4-Methoxyphenyl)-N^5-(1-(3-oxomorpholino)piperidin-4-yl)-1H-pyrazole-3,5-dicarboxamide], the inhibition constant Ki at human Factor Xa and on prothrombinase was 10 to 50 nM throughout.

Regarding `COc1ccc(-n2nc(C(N)=O)cc2C(=O)N(C2CC2)C2CCN(N3CCOCC3=O)CC2)cc1` [Example 18, N^5-Cyclopropyl-1-(4-methoxyphenyl)-N^5-(1-(3-oxomorpholino)piperidin-4-yl)-1H-pyrazole-3,5-dicarboxamide], on human Factor Xa, the Ki lay in the range of 50 to 1000 nM.

In the case of `COc1ccc(-n2nc(C(F)(F)F)c3c2C(=O)N(C2CCN(N4CCCCC4=O)CC2)CC3)cc1` [Example 2, 1-(4-Methoxyphenyl)-6-(2′-oxo-[1,1′-bipiperidin]-4-yl)-3-(trifluoromethyl)-5,6-dihydro-1H-pyrazolo[3,4-c]pyridin-7(4H)-one], the Ki at human Factor Xa is not above 10 nM; at rat Factor Xa it was not above 10 nM; on human thrombin, not below 1000 nM; on human trypsin, not below 1000 nM; at prothrombinase, not above 10 nM.

In the case of `NC(=O)c1cc(C(=O)NC2CCN(N3CCOCC3=O)CC2)n(C2CCOCC2)n1` [Example 20, N^5-(1-(3-Oxomorpholino)piperidin-4-yl)-1-(tetrahydro-2H-pyran-4-yl)-1H-pyrazole-3,5-dicarboxamide], on human Factor Xa, the Ki lay in the range of 10 to 50 nM.

Turning to `COc1ccc(-n2nc(C(F)(F)F)c3c2C(=O)N(C2CCN(N4CCOCC4=O)CC2)CC3)cc1` [Example 1, 4-(4-(1-(4-Methoxyphenyl)-7-oxo-3-(trifluoromethyl)-4,5-dihydro-1H-pyrazolo[3,4-c]pyridin-6(7H)-yl)piperidin-1-yl)morpholin-3-one], the Ki is not above 10 nM on human Factor Xa; not above 10 nM at rat Factor Xa; not below 1000 nM at human thrombin; not below 1000 nM at human trypsin; not above 10 nM at prothrombinase.

As for `O=C1c2c(c(C(F)(F)F)nn2-c2cc3ccccc3cc2F)CCN1C1CCN(N2CCOCC2=O)CC1` [Example 29, 4-(4-(1-(3-Fluoronaphthalen-2-yl)-7-oxo-3-(trifluoromethyl)-4,5-dihydro-1H-pyrazolo[3,4-c]pyridin-6(7H)-yl)piperidin-1-yl)morpholin-3-one], the inhibition constant Ki was not above 10 nM on human Factor Xa; not above 10 nM at rat Factor Xa; not below 1000 nM on human thrombin; not below 1000 nM on human trypsin; not above 10 nM at prothrombinase.

Take `COc1ccc(-n2nc(C(N)=O)c3c2C(=O)N(C2C4CN(N5CCOCC5=O)CC42)CC3)cc1` (centres unmarked) [Example 13, 1-(4-Methoxyphenyl)-7-oxo-6-(3-(3-oxomorpholino)-3-azabicyclo[3.1.0]hexan-6-yl)-4,5,6,7-tetrahydro-1H-pyrazolo[3,4-c]pyridine-3-carboxamide]: the Ki on human Factor Xa was in the range of 10 to 50 nM.

In the case of `NC(=O)c1nn(-c2ccc(OC(F)(F)F)cc2)c2c1CCN(C1CCN(N3CCOCC3=O)CC1)C2=O` [Example 10, 7-Oxo-6-(1-(3-oxomorpholino)piperidin-4-yl)-1-(4-(trifluoromethoxy)phenyl)-4,5,6,7-tetr a hydro-1H-pyrazolo[3,4-c]pyridine-3-carboxamide], the Ki on human Factor Xa is not above 10 nM; on rat Factor Xa, 50 to 1000 nM; on human thrombin it was not below 1000 nM; at human trypsin, not below 1000 nM; on prothrombinase it was 50 to 1000 nM.

On to `COc1ccc(-n2nc(C(N)=O)c3c2C(=O)N(C2C4CN(N5CCCCC5=O)CC42)CC3)cc1` (centres unmarked) [Example 12, 1-(4-Methoxyphenyl)-7-oxo-6-(3-(2-oxopiperidin-1-yl)-3-azabicyclo[3.1.0]hexan-6-yl)-4,5,6,7-tetrahydro-1H-pyrazolo[3,4-c]pyridine-3-carboxamide], for which the Ki on human Factor Xa was 10 to 50 nM.

Take `COc1ccc(-n2nc(C(N)=O)c3c2C(=O)N(C2CCN(C4CCNC4=O)CC2)CC3)cc1` (single isomer, unassigned) [Example 8b, 1-(4-Methoxyphenyl)-7-oxo-6-(1-(2-oxopyrrolidin-3-yl)piperidin-4-yl)-4,5,6,7-tetrahydro-1H-pyrazolo[3,4-c]pyridine-3-carboxamide]: the Ki on human Factor Xa is not above 10 nM; on rat Factor Xa, 10 to 50 nM; on human thrombin, not below 1000 nM; on human trypsin, not below 1000 nM; at prothrombinase, 10 to 50 nM.

With `COc1ccc(-n2nc(C(N)=O)cc2C(=O)N(C)C2CCN(N3CCOCC3=O)CC2)cc1` [Example 16, 1-(4-Methoxyphenyl)-N^5-methyl-N^5-(1-(3-oxomorpholino)piperidin-4-yl)-1H-pyrazole-3,5-dicarboxamide], at human Factor Xa, the Ki was 50 to 1000 nM.

As for `O=C1c2c(c(C(F)(F)F)nn2-c2ccc(OC(F)F)cc2)CCN1C1CCN(N2CCOCC2=O)CC1` [Example 23, 4-(4-(1-(4-(Difluoromethoxy)phenyl)-7-oxo-3-(trifluoromethyl)-4,5-dihydro-1H-pyrazolo[3,4-c]pyridin-6(7H)-yl)piperidin-1-yl)morpholin-3-one], the Ki at human Factor Xa was not above 10 nM; at rat Factor Xa, 10 to 50 nM; at human thrombin, not below 1000 nM; on human trypsin, not below 1000 nM; on prothrombinase, not above 10 nM.

As to `NC(=O)c1cc(-n2nc(C(F)(F)F)c3c2C(=O)N(C2CCN(N4CCOCC4=O)CC2)CC3)ccc1OC(F)F` [Example 33, 2-(Difluoromethoxy)-5-(7-oxo-6-(1-(3-oxomorpholino)piperidin-4-yl)-3-(trifluoromethyl)-4,5,6,7-tetrahydro-1H-pyrazolo[3,4-c]pyridin-1-yl)benzamide], on human Factor Xa, the Ki was 50 to 1000 nM.

Turning to `N#Cc1cc(-n2nc(C(F)(F)F)c3c2C(=O)N(C2CCN(N4CCOCC4=O)CC2)CC3)ccc1OC(F)F` [Example 30, 2-(Difluoromethoxy)-5-(7-oxo-6-(1-(3-oxomorpholino)piperidin-4-yl)-3-(trifluoromethyl)-4,5,6,7-tetrahydro-1H-pyrazolo[3,4-c]pyridin-1-yl)benzonitrile], the inhibition constant Ki at human Factor Xa lay within 50 to 1000 nM.

On to `CS(=O)(=O)N1CCC(n2nc(C(N)=O)cc2C(=O)NC2CCN(N3CCOCC3=O)CC2)CC1` [Example 21, 1-(1-(Methylsulfonyl)piperidin-4-yl)-N^5-(1-(3-oxomorpholino)piperidin-4-yl)-1H-pyrazole-3,5-dicarboxamide], for which the Ki at human Factor Xa lay within 50 to 1000 nM.

In the case of `NC(=O)c1cc(-n2nc(C(F)(F)F)c3c2C(=O)N(C2CCN(N4CCOCC4=O)CC2)CC3)ccc1F` [Example 32, 2-Fluoro-5-(7-oxo-6-(1-(3-oxomorpholino)piperidin-4-yl)-3-(trifluoromethyl)-4,5,6,7-tetra hydro-1H-pyrazolo[3,4-c]pyridin-1-yl)benzamide], on human Factor Xa, the Ki is 50 to 1000 nM.

`COc1ccc(-n2nc(C(N)=O)c3c2C(=O)N(C2CCN(C4CCNC4=O)CC2)CC3)cc1` (single isomer, unassigned) [Example 8a, 1-(4-Methoxyphenyl)-7-oxo-6-(1-(2-oxopyrrolidin-3-yl)piperidin-4-yl)-4,5,6,7-tetrahydro-1H-pyrazolo[3,4-c]pyridine-3-carboxamide]: the Ki at human Factor Xa fell in the range of 50 to 1000 nM; on rat Factor Xa, 10 to 50 nM.

Consider `N#Cc1cc(-n2nc(C(F)(F)F)c3c2C(=O)N(C2CCN(N4CCOCC4=O)CC2)CC3)ccc1F` [Example 25, 2-Fluoro-5-(7-oxo-6-(1-(3-oxomorpholino)piperidin-4-yl)-3-(trifluoromethyl)-4,5,6,7-tetra hydro-1H-pyrazolo[3,4-c]pyridin-1-yl)benzonitrile], for which the inhibition constant Ki on human Factor Xa was 50 to 1000 nM.

With `NC(=O)c1nn(-c2ccc(Cl)cc2)c2c1CCN(C1CCN(N3CCOCC3=O)CC1)C2=O` [Example 9, 1-(4-Chlorophenyl)-7-oxo-6-(1-(3-oxomorpholino)piperidin-4-yl)-4,5,6,7-tetrahydro-1H-pyrazolo[3,4-c]pyridine-3-carboxamide], the inhibitory constant (Ki) on human Factor Xa is 10 to 50 nM.

Consider `COc1ccc(-n2nc(C(N)=O)cc2C(=O)NC2CCN(N3CCOCC3=O)C2)cc1` (centres unmarked) [Example 19, 1-(4-Methoxyphenyl)-N^5-(1-(3-oxomorpholino)pyrrolidin-3-yl)-1H-pyrazole-3,5-dicarboxamide], for which the Ki on human Factor Xa is 50 to 1000 nM.

For the origin of these results see patent US9938272B2, “Hydrazine compound as blood coagulation factor Xa inhibitor” (NORTH CHINA PHARMACEUTICAL COMPANY., LTD., priority 2014, dated 2018).
